In US20250281444A1, “COMPOUND WITH NEW SKELETON OF URSANE TRITERPENOID - ENT-KAURANE DITERPENOID DIMER, AND PREPARATION METHOD THEREOF AND APPLICATION THEREOF” (NANJING UNIVERSITY OF CHINESE MEDICINE, priority 2025, published 2025):
Values after ≈ are worked out from the molar mass of the structure shown. Where two headings read alike, the source gives them in different places. One block for each compound: values may come before it.

Legend:
Assay type in all cases: cell-based
[1] = system: liver cancer cell line HepG2; test: cells; details: for IC50: 72 hours, CCK-8, read-out: IC50 ± SD, HepG2
Protocol: (§1) A pancreatic cancer cell line MIA PaCa-2, a colon cancer cell line HT-29, a lung cancer cell line A549, and a liver cancer cell line HepG2 (cell bank of Chinese Academy of Sciences) were cultured in a DMEM culture solution containing 10% fetal bovine serum (Gibco Company) at 37° C. under 5% CO2. HT-29, A549 and HepG2 cell culture media were supplemented with 10% FBS and 1% PSN, and a MIA PaCa-2 cell culture medium was supplemented with 10% FBS, 2.5% HS and 1% PSN.
(§2) Different volumes of DMEM culture media were added to dilute the compounds into different concentrations. Meanwhile, a DMEM culture medium containing 0.1% DMSO was used as a negative control.
(§3) Tumor cells were suspended in a culture medium, MIA PaCa-2, HT-29 and HepG2 cells were inoculated into a 96-well plate at a cell density of 8000, A549 cells were inoculated into a 96-well plate at a cell density of 3000 (100 μL/well), and the cells were cultured at 37° C. under 5% CO2 for 24 hours. In a logarithmic growth phase of the tumor cell lines, different concentrations of compounds (0, 0.004, 0.04, 0.4, 4, and 40 μM) were added to culture the cells at 37° C. under 5% CO2 for 72 hours.
(§4) After 72 hours of interaction between the drugs and the tumor cells, 10 μL of CCK-8 solution was added into each well to incubate the cells in a sterile incubator for 1 hour, and then the solution was taken out to determine an OD value by a microplate reader at a wavelength of 450 nm. IC50 (median inhibitory concentration) values of the compounds were calculated by GraphPad Prism 8 software, and 5-FU and Carboplatin were used as positive controls.

[2] = system: colon cancer cell line HT-29; test: cells; details: for IC50: 72 hours, CCK-8, read-out: IC50 ± SD, HT-29
Protocol: as §1, §2, §3, §4

Candida albicans C5 = test: MIC, compound 1 alone and combined with amphotericin B
Text: (§5) Helicobacter pylori (G27 and HP129) and Candida albicans (SC5314 and C5) both came from Professor Hongkai Bi's laboratory of Nanjing Medical University. Main culture mediums and main reagents: Colombian culture medium, LB culture medium, selective antibiotics (metronidazole and amphotericin B), serum, and the like.
(§6) LB culture medium: 15 g/L glucose, 10 g/L yeast extract, 5 g/L peptone, and 10 g/L sodium chloride.
(§7) (1) Sample solutions of the compounds 1 and 2 prepared in Embodiment 1 were configured to have a concentration of 2 mg/mL.
(§8) (2) In preparation by a MIC plate, a first well was added with 173.6 μL of culture medium and then added with 6.4 μL of antibacterial drug, and dilution was carried out by multiple proportions to a 7th well; and an 8th well was not added with the drug, but was reserved with 90 μL of culture medium to serve as a control with bacteria but no drug.
(§9) (4) In inoculation, 10 μL of bacterial solution was added into the 1st to 8th wells (a concentration of the bacterial solution in each well was about 1.0×10^6 CFU/mL). Results were judged after 72 hours of culture. Drug concentrations from the 1st to 7th wells were 64 μg/mL, 32 μg/mL, 16 μg/mL, 8 μg/mL, 4 μg/mL, 2 μg/mL, and 1 μg/mL respectively.
(§10) (5) In result judgment, a lowest drug concentration capable of completely inhibiting the growth of bacteria in the wells was MIC. The test was only meaningful when the bacteria in the 8th well of the positive control well (without antibiotics) grew obviously. When there was a single drift in a microdilution method, a highest drug concentration capable of inhibiting the growth of bacteria should be recorded. If there were many drifts, the results should not be reported, and the test should be repeated. Each drug was tested repeatedly for 3 times.

Candida albicans SC5314 = test: as above
Text: as §5, §6, §7, §8, §9, §10

[3] = system: Helicobacter pylori H. pylori G27; test: Determination of MIC (microdilution); details: 72 hours of culture
Protocol: as §5
(§11) Colombian liquid culture medium: 29.0 g of Colombian liquid culture medium was accurately weighed, heated, and dissolved in 1000 mL of double distilled water, and the culture medium was subjected to autoclaved sterilization at 121° C. for 15 minutes after being completely dissolved for later use.
(§12) Colombian blood agar solid culture medium: 39.0 g of Colombian blood agar solid culture medium was accurately weighed, heated, and dissolved in 1000 mL of double distilled water, and the culture medium was subjected to autoclaved sterilization at 121° C. for 15 minutes after being completely dissolved, naturally cooled to about 50° C. after the autoclaved sterilization, quickly added with 5% sterile deflbrinated sheep blood, mixed evenly, and then poured into a sterile dish while the mixture was hot.
(§13) Standard strains of Helicobacter pylori were taken out of a refrigerator at −80° C. and placed at room temperature, 200 μL of standard strains were accurately sucked, transferred to a solid culture medium, and spread with an L-shaped glass rod, a culture dish loaded with the strains was put into a culture bag, then an AnaeroPack was put into the culture bag, and the culture bag was quickly sealed and then put into a constant-temperature incubator at 37° C. to culture the strains for 72 hours. After the end of culture, the Helicobacter pylori was identified first, then a bacterial lawn on the solid culture medium was scraped off, and the bacterial lawn was transferred into 50 mL of liquid culture medium to serve as an original bacterial solution.
as §7, §8
(§14) (3) In preparation of bacterial solution, the Helicobacter pylori growing at a logarithmic phase on a solid plate was made into a bacterial suspension with a BHI culture medium, an OD600 value of concentration of the bacterial suspension was adjusted to be 0.3 (1×10^8 CFU/mL), and then the bacterial suspension was diluted 10 times to reach 1×10^7 CFU/mL for later use.
as §9, §10

[4] = system: Helicobacter pylori H. pylori 129; test: Determination of MIC (microdilution); details: 72 hours of culture, R = drug-resistant strain
Protocol: as §5, §11, §12, §13, §7, §8, §14, §9, §10

[5] = system: pancreatic cancer cell line MIA PaCa-2; details: for IC50: 72 hours, CCK-8, read-out: IC50 ± SD, MIA PaCa-2
Protocol: as §1, §2, §3, §4

[6] = system: lung cancer cell line A549; details: for IC50: 72 hours, CCK-8, read-out: IC50 ± SD, A549
Protocol: as §1, §2, §3, §4

- IC50 ([1]; Homo sapiens, HepG2): 4.82 ± 0.07 µM
- IC50 ([2]; Homo sapiens, HT-29): 12.87 ± 0.04 µM
SMILES: O=c1[nH]cc(F)c(=O)[nH]1 [5-Fluorouracil, reference compound]

- AMB MIC, separate use (Candida albicans C5; C5, AMB alone): 2 µg/mL
- AMB MIC, separate use (Candida albicans SC5314; SC5314, AMB alone): 2 µg/mL
SMILES: C[C@@H]1[C@H](O)[C@@H](C)/C=C/C=C/C=C/C=C/C=C/C=C/C=C/[C@H](O[C@@H]2O[C@H](C)[C@@H](O)[C@H](N)[C@@H]2O)C[C@@H]2O[C@](O)(C[C@@H](O)C[C@@H](O)[C@H](O)CC[C@@H](O)C[C@@H](O)CC(=O)O[C@H]1C)C[C@H](O)[C@H]2C(=O)O [AMB, amphotericin B, reference compound]

SMILES: COC(=O)C12CCC(C)(CC3C(=O)C45C(O)C3CCC4C34COC5(O)C(O)C3C(C)(C)CCC4O)C(C)=C1C1=CCC3C4(C)CC(O)C(O)C(C)(C)C4CCC3(C)C1(C)CC2 (centres unmarked) [Compound 2, Bisicacinol C]
- IC50 [1]: > 40 µM
- cytotoxic activity in words, HT-29 [2]: strong inhibitory activity
- IC50 [2]: 33.35 ± 0.06 µM
- MIC, H. pylori G27 [3]: 16 µg/mL (≈ 18.8 µM)
- MIC, H. pylori 129 [4]: 32 µg/mL (≈ 37.7 µM)
- IC50 [5]: > 40 µM
- cytotoxic activity in words, A549 [6]: strong inhibitory activity
- IC50 [6]: 23.1 ± 0.12 µM

SMILES: N.N.O=C([O-])C1(C(=O)[O-])CCC1.[Pt+2] [Carboplatin, reference compound]
- IC50 [6]: > 40 µM

SMILES: COC(=O)C12CCC(C)(CC3C(=O)C45C(O)C3CCC4C34COC5(O)C(O)C3C(C)(C)CCC4O)C(C)=C1C1=CCC3C4(C)CC(O)C(O)C(C)(C)C4CCC3(C)C1(C)CC2 (centres unmarked) [Compound 1, Bisicacinol B]
- cytotoxic activity in words, HepG2 [1]: strong activity
- IC50 [1]: 14.84 ± 0.12 µM
- cytotoxic activity in words, HT-29 [2]: strong activity
- IC50 [2]: 14.95 ± 0.14 µM
- MIC, H. pylori G27 [3]: 16 µg/mL (≈ 18.8 µM)
- MIC, H. pylori 129 [4]: 32 µg/mL (≈ 37.7 µM)
- Compound 1 MIC, combined use (Candida albicans C5; C5, combined with AMB): 1 µg/mL
- FICI index after combination (Candida albicans C5; C5, compound 1 + AMB): ≤0.078
- Compound 1 MIC, separate use (Candida albicans C5; C5, compound 1 alone): >32 µg/mL
- MIC + 0.5 μg/ml AMB (Candida albicans C5; C5, compound 1 with 0.5 μg/ml AMB): 1 µg/mL
- inhibitory effect on growth in words, used separately (Candida albicans C5; Candida albicans C5, compound alone): no significant inhibitory effect
- inhibitory effect on growth in words, used separately (Candida albicans SC5314; Candida albicans SC5314, compound alone): no significant inhibitory effect
- Compound 1 MIC, combined use (Candida albicans SC5314; SC5314, combined with AMB): 1 µg/mL
- FICI index after combination (Candida albicans SC5314; SC5314, compound 1 + AMB): ≤0.078
- Compound 1 MIC, separate use (Candida albicans SC5314; SC5314, compound 1 alone): >32 µg/mL
- MIC + 0.5 μg/ml AMB (Candida albicans SC5314; SC5314, compound 1 with 0.5 μg/ml AMB): 1 µg/mL
- cytotoxic activity in words, MIA PaCa-2 [5]: strong activity
- IC50 [5]: 13.1 ± 0.18 µM
- cytotoxic activity in words, A549 [6]: strong activity
- IC50 [6]: 4.2 ± 0.24 µM

- MIC ([3]; Helicobacter pylori): 2 µg/mL (≈ 11.7 µM)
- MIC ([4]; Helicobacter pylori): 8 µg/mL (≈ 46.7 µM)
SMILES: Cc1ncc([N+](=O)[O-])n1CCO [MTZ, metronidazole, reference compound]
